Measurements as given in patent US20040162235A1, “Delivery of siRNA to cells using polyampholytes” (priority 2003, published 2004).
Read-outs that look alike come from different tables or passages of the source. *1 amine or outer side, *2 acyl side, *3 side chain or, on linkers, in order; H or OH if unused. Where a SMILES comes first, the peptide text is derived from it. Where no end group is shown, it is not given here. The star is where a group is joined. Suc = O=C(CCC(=O)[*:2])[*:1]; X1 = C/C(C(=O)O)=C(\C)C(=O)*

Assays:
[1] = Red blood cell (RBC) hemolysis assay; format: cell-based; details: 37° C., read-out: Percent Hemolysis; for hemolysis at 30 min: red blood cells (washed, harvested from whole blood)
Procedure: C. […] RBCs were harvested by centrifuging whole blood for 4 min. They were washed three times with 100 mM dibasic sodium phosphate at the desired pH, and resuspended in the same buffer to yield the initial volume. They were diluted 10 times in the same buffer, and 200 μL of this suspension was used for each tube. This yields […] RBCs per tube. Each tube contained 800 μL of buffer, 200 μL of the RBC suspension, and the peptide with or without polymer. Each sample was then repeated to verify reproducibility. The tubes were incubated for 30 minutes in a 37° C. water bath. They were spun for 5 min at full speed in the microcentrifuge. Lysis was determined by measuring the absorbance of the supernatant at 541 nm, reflecting the amount of hemoglobin that had been released into the supernatant. Percent hemolysis was calculated assuming 100% lysis to be measured by the hemoglobin released by the red blood cells in water; controls of RBCs in buffer with no peptide were also run.

[2] = Lability at pH 5: conversion of maleamic acid to amine and anhydride, followed by TNBS; format: physicochemical; details: sodium acetate buffer pH 5
Procedure: A. DM-poly-L-lysine: Dimethyl maleamic modified poly-L-lysine (10 mg/mL) was incubated in 10 mM sodium acetate buffer pH 5. At various times, aliquots (10 μg) were removed and added to 0.5 mL of 100 mM borax solution containing 0.4 mM trinitrobenzenesulfonate (TNBS). After 30 min, the absorbance of the solution at 420 nm was measured. To determine the concentration of amines at each time point, the extinction coefficient was determined for the product of TNBS and poly-L-lysine. Using this extinction coefficient we were able to calculate the amount of amines and maleamic groups at each time point. A plot of In (At/A0) as a function of time was a straight line whose slope was the negative of the rate constant for the conversion of maleamic acid to amine and anhydride, where At is the concentration of maleamic acid at a time t and A0 is the initial concentration of maleamic acid. For two separate experiments we calculated rate constants of […] which correspond to half lives of roughly 10 and 4 minutes, respectively.
B. DM-KL3: Dimethyl maleamic modified KL3 (0.1 mg/mL) was incubated in 40 mM sodium acetate buffer pH 5 and 1 mM cetyltrimetylammonium bromide. At various times, 10 μg aliquots were removed and added to 0.05 mL 1 M borax solution containing 4 mM TNBS. After 30 min, the absorbance of the solution at 420 nm was measured. […]

Compound	hemolysis ([1]; pH 5.4, 30 minutes) [%]	hemolysis ([1]; pH 7.5, 30 minutes) [%]	half-life [2] [min]	rate constant for the conversion of maleamic acid to amine and anhydride [2] [min⁻¹]	hemolysis at 30 min ([1]; pH 5.4, 30 minutes) [%]	hemolysis at 30 min ([1]; pH 7.5, 30 minutes) [%]
C/C(C(=O)O)=C(\C)C(=O)NCCCC[C@H](NC(=O)/C(C)=C(/C)C(=O)O)C(=O)N[C@@H](CC(C)C)C(=O)N[C@@H](CC(C)C)C(=O)N[C@@H](CCCCNC(=O)/C(C)=C(/C)C(=O)O)C(=O)N[C@@H](CC(C)C)C(=O)N[C@@H](CC(C)C)C(=O)N[C@@H](CC(C)C)C(=O)N[C@@H](CCCCNC(=O)/C(C)=C(/C)C(=O)O)C(=O)N[C@@H](CC(C)C)C(=O)N[C@@H](Cc1c[nH]c2ccccc12)C(=O)N[C@@H](CC(C)C)C(=O)N[C@@H](CCCCNC(=O)/C(C)=C(/C)C(=O)O)C(=O)N[C@@H](CC(C)C)C(=O)N[C@@H](CC(C)C)C(=O)N[C@@H](CCCCNC(=O)/C(C)=C(/C)C(=O)O)C(=O)N[C@@H](CC(C)C)C(=O)N[C@@H](CC(C)C)C(=O)N[C@@H](CC(C)C)C(=O)N[C@@H](CCCCNC(=O)/C(C)=C(/C)C(=O)O)C(=O)N[C@@H](CC(C)C)C(=O)N[C@@H](CC(C)C)C(=O)O [DM-KL3] (X1-K(X1)LLK(X1)LLLK(X1)LWLK(X1)LLK(X1)LLLK(X1)LL-OH; N-terminus and C-terminus assumed)	37	4.3	~8	0.087		
CC[C@H](C)[C@H](NC(=O)CN)C(=O)NCC(=O)N[C@@H](C)C(=O)N[C@H](C(=O)N[C@@H](CC(C)C)C(=O)N[C@@H](CCCCN)C(=O)N[C@H](C(=O)N[C@@H](CC(C)C)C(=O)N[C@H](C(=O)N[C@H](C(=O)NCC(=O)N[C@@H](CC(C)C)C(=O)N1CCC[C@H]1C(=O)N[C@@H](C)C(=O)N[C@@H](CC(C)C)C(=O)N[C@H](C(=O)N[C@@H](CO)C(=O)N[C@@H](Cc1c[nH]c2ccccc12)C(=O)N[C@H](C(=O)N[C@@H](CCCCN)C(=O)N[C@@H](CCCNC(=N)N)C(=O)N[C@@H](CCCCN)C(=O)N[C@@H](CCCNC(=N)N)C(=O)N[C@@H](CCC(N)=O)C(=O)N[C@@H](CCC(N)=O)C(N)=O)[C@@H](C)CC)[C@@H](C)CC)[C@@H](C)O)[C@@H](C)O)C(C)C)C(C)C [Melittin, reference compound]					85	92
CC(C)C[C@H](NC(=O)[C@H](CC(C)C)NC(=O)[C@H](CCCCNC(=O)CCC(=O)O)NC(=O)[C@H](CC(C)C)NC(=O)[C@H](CC(C)C)NC(=O)[C@H](CC(C)C)NC(=O)[C@H](CCCCNC(=O)CCC(=O)O)NC(=O)[C@H](CC(C)C)NC(=O)[C@H](CC(C)C)NC(=O)[C@H](CCCCNC(=O)CCC(=O)O)NC(=O)[C@H](CC(C)C)NC(=O)[C@H](Cc1c[nH]c2ccccc12)NC(=O)[C@H](CC(C)C)NC(=O)[C@H](CCCCNC(=O)CCC(=O)O)NC(=O)[C@H](CC(C)C)NC(=O)[C@H](CC(C)C)NC(=O)[C@H](CC(C)C)NC(=O)[C@H](CCCCNC(=O)CCC(=O)O)NC(=O)[C@H](CC(C)C)NC(=O)[C@H](CC(C)C)NC(=O)[C@H](CCCCNC(=O)CCC(=O)O)NC(=O)CCC(=O)O)C(=O)O [Succinyl-KL3] (Suc-K(Suc)LLK(Suc)LLLK(Suc)LWLK(Suc)LLK(Suc)LLLK(Suc)LL-OH; N-terminus and C-terminus assumed)	2	1.3				
KLLKLLLKLWLKLLKLLLKLL [KL3]	83	62				
